# System: New Zealand rabbits with normal intraocular pressure
# Assay: Reduction of intraocular pressure by repeated eye-drop administration for 14 days, experiment operation 1
# Assay type: in vivo
# Conditions: for Change of intraocular pressure: negative control minus group
# Source text: Experimental example 4. Experiment on reduction of intraocular pressure and ocular toxicity of New Zealand rabbits with normal intraocular pressure by repeated eye-drop administration for 14 days
# The intraocular pressure reduction action and the potential ocular toxicity of compound 63 were explored by 14 days of repeated eye-drop administration in rabbits with normal intraocular pressure.
# Male New Zealand rabbits, aged 97-127 days, weighted 2.6-3.5 kg, purchased from PizhouDongfang Breeding Co. Ltd.
# The male New Zealand rabbits were randomly divided into 7 groups, with 6 rabbits per group. Animals were randomly divided according to body weight Animals in 1-7 groups were eye-dropped with solvent/control sample/test sample in both eyes, the volume of the administration was all 50 μL/eye, once per day for 14 consecutive days, and the day of the administration was recorded as Day 1. On Day 1, intraocular pressure of the animals was measured before the administration and in 1, 2, 4, 6, 8 and 10 hours after the administration, respectively; on Days 2-14, intraocular pressure of the animals was measured in 1 hour after daily administration for the group administered with K-115, and intraocular pressure of the animal was measured in 4 hours after daily administration for the other groups.
# [1] = 2.0 mg/mL once per day, Day 7, 4 hours after daily administration
# [2] = 4.0 mg/mL once per day, Day 2, 4 hours after daily administration
# [3] = 4.0 mg/mL once per day, Day 3, 4 hours after daily administration
# [4] = 4.0 mg/mL once per day, Day 4, 4 hours after daily administration
# [5] = 4.0 mg/mL once per day, Day 5, 4 hours after daily administration
# [6] = 4.0 mg/mL once per day, Day 6, 4 hours after daily administration
# [7] = 4.0 mg/mL once per day, Day 7, 4 hours after daily administration
# [8] = 8.0 mg/mL once per day, Day 2, 4 hours after daily administration
# [9] = 8.0 mg/mL once per day, Day 3, 4 hours after daily administration
# [10] = 8.0 mg/mL once per day, Day 4, 4 hours after daily administration
# [11] = 8.0 mg/mL once per day, Day 5, 4 hours after daily administration
# [12] = 8.0 mg/mL once per day, Day 6, 4 hours after daily administration
# [13] = 8.0 mg/mL once per day, Day 7, 4 hours after daily administration
smiles,measurement,setting,value
Cc1ccc(C(=O)OCn2cc(C)c3c(S(=O)(=O)N4CC[C@H](N)C4)cccc3c2=O)c(C)c1 [Compound 63],Mean intraocular pressure of both eyes,[1],5.78 mmHg
same,Change of intraocular pressure,[1],4.28 mmHg
same,Change of intraocular pressure,"2.0 mg/mL once per day, Day 8, 4 hours after daily administration",4.53 mmHg
same,Change of intraocular pressure,"2.0 mg/mL once per day, Day 9, 4 hours after daily administration",3.72 mmHg
same,Change of intraocular pressure,"2.0 mg/mL once per day, Day 10, 4 hours after daily administration",3.81 mmHg
same,Change of intraocular pressure,"2.0 mg/mL once per day, Day 11, 4 hours after daily administration",3.66 mmHg
same,Change of intraocular pressure,"2.0 mg/mL once per day, Day 12, 4 hours after daily administration",3.5 mmHg
same,Change of intraocular pressure,"2.0 mg/mL once per day, Day 13, 4 hours after daily administration",4.28 mmHg
same,Change of intraocular pressure,"2.0 mg/mL once per day, Day 14, 4 hours after daily administration",3.91 mmHg
same,Change of intraocular pressure,"2.0 mg/mL, Day 1, 1 hour after administration",1.75 mmHg
same,Change of intraocular pressure,"2.0 mg/mL, Day 1, 2 hours after administration",3.5 mmHg
same,Change of intraocular pressure,"2.0 mg/mL, Day 1, 4 hours after administration",3.84 mmHg
same,Change of intraocular pressure,"2.0 mg/mL, Day 1, 6 hours after administration",4.69 mmHg
same,Change of intraocular pressure,"2.0 mg/mL, Day 1, 8 hours after administration",4.53 mmHg
same,Change of intraocular pressure,"2.0 mg/mL, Day 1, 10 hours after administration",4.75 mmHg
same,Change of intraocular pressure,"2.0 mg/mL, Day 1, before administration",0.22 mmHg
same,Mean intraocular pressure of both eyes,"4 mg/mL both eyes, Day 1, 1 hour after administration",10.44 mmHg
same,Mean intraocular pressure of both eyes,"4 mg/mL both eyes, Day 1, 2 hours after administration",7.81 mmHg
same,Mean intraocular pressure of both eyes,"4 mg/mL both eyes, Day 1, 4 hours after administration",6.47 mmHg
same,Mean intraocular pressure of both eyes,"4 mg/mL both eyes, Day 1, 6 hours after administration",6.22 mmHg
same,Mean intraocular pressure of both eyes,"4 mg/mL both eyes, Day 1, 8 hours after administration",7.33 mmHg
same,Mean intraocular pressure of both eyes,"4 mg/mL both eyes, Day 1, 10 hours after administration",8.64 mmHg
same,Mean intraocular pressure of both eyes,"4 mg/mL both eyes, Day 1, before administration",9.67 mmHg
same,Mean intraocular pressure of both eyes,[2],6.53 mmHg
same,Change of intraocular pressure,[2],4.55 mmHg
same,Mean intraocular pressure of both eyes,[3],5.58 mmHg
same,Change of intraocular pressure,[3],4.81 mmHg
same,Mean intraocular pressure of both eyes,[4],5.53 mmHg
same,Change of intraocular pressure,[4],5.08 mmHg
same,Mean intraocular pressure of both eyes,[5],6.61 mmHg
same,Change of intraocular pressure,[5],4.36 mmHg
same,Mean intraocular pressure of both eyes,[6],5.47 mmHg
same,Change of intraocular pressure,[6],3.84 mmHg
same,Mean intraocular pressure of both eyes,[7],5.56 mmHg
same,Change of intraocular pressure,[7],4.5 mmHg
same,Change of intraocular pressure,"4.0 mg/mL once per day, Day 8, 4 hours after daily administration",4.53 mmHg
same,Change of intraocular pressure,"4.0 mg/mL once per day, Day 9, 4 hours after daily administration",3.97 mmHg
same,Change of intraocular pressure,"4.0 mg/mL once per day, Day 10, 4 hours after daily administration",4.67 mmHg
same,Change of intraocular pressure,"4.0 mg/mL once per day, Day 11, 4 hours after daily administration",3.86 mmHg
same,Change of intraocular pressure,"4.0 mg/mL once per day, Day 12, 4 hours after daily administration",3.64 mmHg
same,Change of intraocular pressure,"4.0 mg/mL once per day, Day 13, 4 hours after daily administration",4.36 mmHg
same,Change of intraocular pressure,"4.0 mg/mL once per day, Day 14, 4 hours after daily administration",4.64 mmHg
same,Change of intraocular pressure,"4 mg/mL, Day 1, 1 hour after administration",−0.13 mmHg
same,Change of intraocular pressure,"4 mg/mL, Day 1, 2 hours after administration",3.16 mmHg
same,Change of intraocular pressure,"4 mg/mL, Day 1, 4 hours after administration",4.84 mmHg
same,Change of intraocular pressure,"4 mg/mL, Day 1, 6 hours after administration",5.72 mmHg
same,Change of intraocular pressure,"4 mg/mL, Day 1, 8 hours after administration",5.64 mmHg
same,Change of intraocular pressure,"4 mg/mL, Day 1, 10 hours after administration",5.78 mmHg
same,Change of intraocular pressure,"4 mg/mL, Day 1, before administration",0.22 mmHg
same,Mean intraocular pressure of both eyes,"8.0 mg/mL both eyes, Day 1, 1 hour after administration",7.69 mmHg
same,Mean intraocular pressure of both eyes,"8.0 mg/mL both eyes, Day 1, 2 hours after administration",6.39 mmHg
same,Mean intraocular pressure of both eyes,"8.0 mg/mL both eyes, Day 1, 4 hours after administration",7.06 mmHg
same,Mean intraocular pressure of both eyes,"8.0 mg/mL both eyes, Day 1, 6 hours after administration",7.11 mmHg
same,Mean intraocular pressure of both eyes,"8.0 mg/mL both eyes, Day 1, 8 hours after administration",7.22 mmHg
same,Mean intraocular pressure of both eyes,"8.0 mg/mL both eyes, Day 1, 10 hours after administration",7.97 mmHg
same,Mean intraocular pressure of both eyes,"8.0 mg/mL both eyes, Day 1, before administration",10.17 mmHg
same,Mean intraocular pressure of both eyes,[8],6.33 mmHg
same,Change of intraocular pressure,[8],4.75 mmHg
same,Mean intraocular pressure of both eyes,[9],5.78 mmHg
same,Change of intraocular pressure,[9],4.61 mmHg
same,Mean intraocular pressure of both eyes,[10],5.97 mmHg
same,Change of intraocular pressure,[10],4.64 mmHg
same,Mean intraocular pressure of both eyes,[11],6.42 mmHg
same,Change of intraocular pressure,[11],4.55 mmHg
same,Mean intraocular pressure of both eyes,[12],5.56 mmHg
same,Change of intraocular pressure,[12],3.75 mmHg
same,Mean intraocular pressure of both eyes,[13],5.28 mmHg
same,Change of intraocular pressure,[13],4.78 mmHg
same,Change of intraocular pressure,"8.0 mg/mL once per day, Day 8, 4 hours after daily administration",5.59 mmHg
same,Change of intraocular pressure,"8.0 mg/mL once per day, Day 9, 4 hours after daily administration",4.25 mmHg
same,Change of intraocular pressure,"8.0 mg/mL once per day, Day 10, 4 hours after daily administration",4.19 mmHg
same,Change of intraocular pressure,"8.0 mg/mL once per day, Day 11, 4 hours after daily administration",4.16 mmHg
same,Change of intraocular pressure,"8.0 mg/mL once per day, Day 12, 4 hours after daily administration",3.97 mmHg
same,Change of intraocular pressure,"8.0 mg/mL once per day, Day 13, 4 hours after daily administration",4.72 mmHg
same,Change of intraocular pressure,"8.0 mg/mL once per day, Day 14, 4 hours after daily administration",4.03 mmHg
same,Change of intraocular pressure,"8.0 mg/mL, Day 1, 1 hour after administration",2.62 mmHg
same,Change of intraocular pressure,"8.0 mg/mL, Day 1, 2 hours after administration",4.58 mmHg
same,Change of intraocular pressure,"8.0 mg/mL, Day 1, 4 hours after administration",4.25 mmHg
same,Change of intraocular pressure,"8.0 mg/mL, Day 1, 6 hours after administration",4.83 mmHg
same,Change of intraocular pressure,"8.0 mg/mL, Day 1, 8 hours after administration",5.75 mmHg
same,Change of intraocular pressure,"8.0 mg/mL, Day 1, 10 hours after administration",6.45 mmHg
same,Change of intraocular pressure,"8.0 mg/mL, Day 1, before administration",−0.28 mmHg
same,Efficacy of a single dose (highest hypotensive effect and action duration),"all test doses (0.5-8.0 mg/mL), compared with K-115",superior efficacy
same,Hypotensive effect after 14 days of continuous administration,dose of 0.5 mg/mL,maintain a significant hypotensive effect

# Source: patent US12459918B2, “Isoquinolinone derivatives serving as rock protein kinase inhibitors and use thereof” (GUANGZHOU OCUSUN OPHTHALMIC BIOTECHNOLOGY CO., LTD., priority 2019, dated 2025)
